Experimental data: paper PMC10916743 (RSC Advances, 2024)
Several values for one entry are separate records, joined by “and”; a condition that tells them apart may be missing. Equal values may be shown once.

Columns and labels:
EGFR^T790M = EGFR^T790M (Homo sapiens, UniProt P00533, T790M); experiment: In vitro EGFR^T790M kinase inhibitory assay; assay type: biochemical; conditions: HTRF kinase assay, mean ± SD of three separate experiments
HepG2 cell line = experiment: MTT cytotoxicity assay, HepG2; assay type: cell-based; conditions: for IC50: Homo sapiens, HepG2, read-out: IC50 HepG2; for Selectivity index: fold more toxic against HepG2 than VERO cells: VERO IC50 / HepG2 IC50
EGFR^WT = EGFR^WT (Homo sapiens, UniProt P00533); experiment: In vitro EGFR^WT kinase inhibitory assay; assay type: biochemical; conditions: mean ± SD of three separate experiments
EGFR^WT, sequence (P00533 25-1210): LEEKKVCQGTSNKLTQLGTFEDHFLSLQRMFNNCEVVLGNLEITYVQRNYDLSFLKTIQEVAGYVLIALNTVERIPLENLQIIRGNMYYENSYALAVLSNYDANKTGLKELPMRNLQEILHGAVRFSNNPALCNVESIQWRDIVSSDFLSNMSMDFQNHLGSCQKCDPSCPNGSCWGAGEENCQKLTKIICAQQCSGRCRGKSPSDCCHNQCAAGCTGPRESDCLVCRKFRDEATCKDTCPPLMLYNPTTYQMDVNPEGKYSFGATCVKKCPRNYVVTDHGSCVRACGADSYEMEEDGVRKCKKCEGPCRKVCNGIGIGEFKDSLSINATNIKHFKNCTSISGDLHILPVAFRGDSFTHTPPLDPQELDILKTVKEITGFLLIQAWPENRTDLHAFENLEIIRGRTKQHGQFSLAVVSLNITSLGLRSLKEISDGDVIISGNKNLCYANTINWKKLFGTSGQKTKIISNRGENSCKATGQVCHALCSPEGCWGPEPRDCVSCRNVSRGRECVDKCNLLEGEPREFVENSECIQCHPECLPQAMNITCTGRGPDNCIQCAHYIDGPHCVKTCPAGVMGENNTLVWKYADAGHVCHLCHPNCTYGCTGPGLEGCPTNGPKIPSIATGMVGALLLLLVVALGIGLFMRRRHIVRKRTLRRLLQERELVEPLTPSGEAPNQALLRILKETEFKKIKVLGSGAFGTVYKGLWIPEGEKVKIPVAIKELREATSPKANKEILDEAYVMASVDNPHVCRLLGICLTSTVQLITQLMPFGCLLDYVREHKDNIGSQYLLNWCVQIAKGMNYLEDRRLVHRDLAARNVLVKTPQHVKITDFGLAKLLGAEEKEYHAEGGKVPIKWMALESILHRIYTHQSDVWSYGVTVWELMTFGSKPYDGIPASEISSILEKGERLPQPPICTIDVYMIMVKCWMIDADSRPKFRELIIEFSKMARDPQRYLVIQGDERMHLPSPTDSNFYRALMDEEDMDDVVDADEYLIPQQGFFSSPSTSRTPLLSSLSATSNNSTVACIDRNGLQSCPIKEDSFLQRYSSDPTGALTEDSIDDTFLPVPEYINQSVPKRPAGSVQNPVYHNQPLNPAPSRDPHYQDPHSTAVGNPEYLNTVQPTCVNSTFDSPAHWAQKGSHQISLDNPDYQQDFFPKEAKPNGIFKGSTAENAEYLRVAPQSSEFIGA

HCT116 cell line = experiment: MTT cytotoxicity assay, HCT116; assay type: cell-based; conditions: for IC50: Homo sapiens, HCT-116, read-out: IC50 HCT116; for Selectivity index: fold grander lethalness in HCT116 than in VERO cells: VERO IC50 / HCT116 IC50
A549 cell line = experiment: MTT cytotoxicity assay, A549; assay type: cell-based; conditions: for IC50: Homo sapiens, A549, read-out: IC50 A549; for Selectivity index: fold more toxicity in A549 than in VERO cells: VERO IC50 / A549 IC50
MCF-7 cell line = experiment: MTT cytotoxicity assay, MCF-7; assay type: cell-based; conditions: for IC50: Homo sapiens, MCF7, read-out: IC50 MCF-7; for Selectivity index: fold more toxic in MCF-7 than in VERO cells: VERO IC50 / MCF-7 IC50

EGFR^T790M, sequence (P00533 25-1210 T790M): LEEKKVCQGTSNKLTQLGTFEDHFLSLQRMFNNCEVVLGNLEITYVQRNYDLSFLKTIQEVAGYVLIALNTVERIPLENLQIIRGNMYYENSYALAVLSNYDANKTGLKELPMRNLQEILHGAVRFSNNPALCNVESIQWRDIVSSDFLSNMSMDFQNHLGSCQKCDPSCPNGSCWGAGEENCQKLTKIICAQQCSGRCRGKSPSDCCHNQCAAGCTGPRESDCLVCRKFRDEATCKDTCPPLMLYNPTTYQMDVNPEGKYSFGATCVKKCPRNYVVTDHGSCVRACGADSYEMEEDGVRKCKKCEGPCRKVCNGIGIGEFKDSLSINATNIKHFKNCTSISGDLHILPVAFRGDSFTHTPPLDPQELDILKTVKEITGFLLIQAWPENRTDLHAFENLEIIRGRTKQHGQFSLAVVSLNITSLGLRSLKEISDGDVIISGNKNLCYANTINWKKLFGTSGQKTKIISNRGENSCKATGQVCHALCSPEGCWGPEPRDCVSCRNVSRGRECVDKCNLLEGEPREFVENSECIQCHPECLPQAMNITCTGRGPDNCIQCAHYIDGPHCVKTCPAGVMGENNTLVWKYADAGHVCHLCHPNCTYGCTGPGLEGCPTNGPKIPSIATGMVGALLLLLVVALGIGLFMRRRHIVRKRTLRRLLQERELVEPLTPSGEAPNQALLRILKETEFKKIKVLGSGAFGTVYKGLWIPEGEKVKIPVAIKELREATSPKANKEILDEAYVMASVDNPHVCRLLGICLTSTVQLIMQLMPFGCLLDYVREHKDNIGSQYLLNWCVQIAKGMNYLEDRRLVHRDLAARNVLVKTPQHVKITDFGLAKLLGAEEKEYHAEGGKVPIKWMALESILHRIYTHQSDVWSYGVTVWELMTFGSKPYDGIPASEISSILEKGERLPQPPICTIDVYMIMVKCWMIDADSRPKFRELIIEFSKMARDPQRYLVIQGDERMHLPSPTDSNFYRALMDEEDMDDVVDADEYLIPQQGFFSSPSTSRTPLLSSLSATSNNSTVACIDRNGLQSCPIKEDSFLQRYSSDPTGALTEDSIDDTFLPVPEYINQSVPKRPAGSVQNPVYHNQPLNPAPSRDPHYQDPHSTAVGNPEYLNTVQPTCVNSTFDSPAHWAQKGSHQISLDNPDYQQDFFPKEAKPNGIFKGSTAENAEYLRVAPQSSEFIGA

SMILES	IC50 (EGFR^T790M)	IC50 (HepG2 cell line) [µM]	IC50 (EGFR^WT) [µM]	IC50 (HCT116 cell line) [µM]	IC50 (A549 cell line) [µM]	IC50 (MCF-7 cell line) [µM]	Selectivity index: fold more toxic against HepG2 than VERO cells (HepG2 cell line) [fold]	Selectivity index: fold grander lethalness in HCT116 than in VERO cells (HCT116 cell line) [fold]	Selectivity index: fold more toxicity in A549 than in VERO cells (A549 cell line) [fold]	Selectivity index: fold more toxic in MCF-7 than in VERO cells (MCF-7 cell line) [fold]
C=CCn1c(=O)n(CC(=O)Nc2ccc(C(=O)NC)cc2)c(=O)c2cc(I)ccc21 [Compound 5a, 4-{2-[1-Allyl-6-iodo-2,4-dioxo-1,4-dihydroquinazolin-3(2H)-yl]acetamido}-N-methylbenzamide]	1.62 ± 0.2 µM	15 ± 1.5	1.32 ± 0.25	13.4 ± 1.5	10.6 ± 1.5	13.2 ± 1	–	–	–	–
C=CCn1c(=O)n(CC(=O)Nc2ccc(C(=O)NCC)cc2)c(=O)c2cc(I)ccc21 [Compound 5b, 4-{2-[1-Allyl-6-iodo-2,4-dioxo-1,4-dihydroquinazolin-3(2H)-yl]acetamido}-N-ethylbenzamide]	1.33 ± 0.1 µM	12.5 ± 1	1 ± 0.15	11 ± 1.3	9.5 ± 1.5	11.3 ± 1.1	–	–	–	–
C=CCn1c(=O)n(CC(=O)Nc2ccc(C(=O)OC)cc2)c(=O)c2cc(I)ccc21 [Compound 6a, Methyl 4-{2-[1-allyl-6-iodo-2,4-dioxo-1,4-dihydroquinazolin-3(2H)-yl]acetamido}benzoate]	1.54 ± 0.5 µM	13 ± 1.4	1.15 ± 0.25	12.1 ± 1.5	10.4 ± 1.5	12.2 ± 1.7	–	–	–	–
C=CCn1c(=O)n(CC(=O)Nc2ccc(C(=O)OCC)cc2)c(=O)c2cc(I)ccc21 [Compound 6b, Ethyl 4-{2-[1-allyl-6-iodo-2,4-dioxo-1,4-dihydroquinazolin-3(2H)-yl]acetamido}benzoate]	1.12 ± 0.5 µM	11.6 ± 1.8	0.95 ± 0.35	9.79 ± 1.8	9.39 ± 1.5	11 ± 1.6	–	–	–	–
C=CCn1c(=O)n(CC(=O)Nc2ccc(C(=O)NN)cc2)c(=O)c2cc(I)ccc21 [Compound 7, 2-[1-Allyl-6-iodo-2,4-dioxo-1,4-dihydroquinazolin-3(2H)-yl]-N-[4-(hydrazinecarbonyl)phenyl]acetamide]	1.9 ± 0.5 µM	16.5 ± 1.6	1.5 ± 0.15	15.2 ± 1.7	12.2 ± 1.5	15.2 ± 1.9	–	–	–	–
C=CCn1c(=O)n(CC(=O)Nc2ccc(-c3nnc(S)o3)cc2)c(=O)c2cc(I)ccc21 [Compound 8, 2-(1-Allyl-6-iodo-2,4-dioxo-1,4-dihydroquinazolin-3(2H)-yl)-N-(4-(5-mercapto-1,3,4-oxadiazol-2-yl)phenyl)acetamide]	0.96 ± 0.5 µM	11.2 ± 1.9	0.88 ± 0.35	9.31 ± 1.8	9 ± 1.5	10.8 ± 1.8	–	–	–	–
C=CCn1c(=O)n(CC(=O)Nc2ccc(-c3nnc(C)o3)cc2)c(=O)c2cc(I)ccc21 [Compound 9, 2-[1-Allyl-6-iodo-2,4-dioxo-1,4-dihydroquinazolin-3(2H)-yl]-N-[4-(5-methyl-1,3,4-oxadiazol-2-yl)phenyl]acetamide]	0.89 ± 0.5 µM	11 ± 1.4	0.8 ± 0.25	8.62 ± 1.5	7.06 ± 1.5	10.4 ± 1.7	–	–	–	–
C=CCn1c(=O)n(CC(=O)Nc2ccc(-n3nc(C)cc3C)cc2)c(=O)c2cc(I)ccc21 [Compound 10, 2-[1-Allyl-6-iodo-2,4-dioxo-1,4-dihydroquinazolin-3(2H)-yl]-N-[4-(3,5-dimethyl-1H-pyrazol-1-yl)phenyl]acetamide]	0.54 ± 0.5 µM	7.35 ± 1	0.38 ± 0.35	6.96 ± 1.1	6.9 ± 1.5	7.85 ± 0.9	5.91	6.24	6.30	5.53
CNC(=O)c1ccc(NC(=O)Cn2c(=O)c3cc(I)ccc3n(Cc3ccccc3)c2=O)cc1 [Compound 13, 4-{2-[1-Benzyl-6-iodo-2,4-dioxo-1,4-dihydroquinazolin-3(2H)-yl]acetamido}-N-methylbenzamide]	0.61 ± 0.1 µM	8 ± 1.3	0.5 ± 0.15	7.36 ± 1.1	7.1 ± 1.1	8.25 ± 1.1	5.86	6.37	6.60	5.68
COC(=O)c1ccc(NC(=O)Cn2c(=O)c3cc(I)ccc3n(Cc3ccccc3)c2=O)cc1 [Compound 14a, Methyl 4-{2-[1-benzyl-6-iodo-2,4-dioxo-1,4-dihydroquinazolin-3(2H)-yl]acetamido}benzoate]	0.75 ± 0.5 µM	9 ± 1.2	0.6 ± 0.35	8.5 ± 1.1	7.87 ± 1.1	8.35 ± 1.5	5.58	5.91	6.38	6.01
CCOC(=O)c1ccc(NC(=O)Cn2c(=O)c3cc(I)ccc3n(Cc3ccccc3)c2=O)cc1 [Compound 14b, Ethyl 4-{2-[1-benzyl-6-iodo-2,4-dioxo-1,4-dihydroquinazolin-3(2H)-yl]acetamido}benzoate]	0.36 ± 0.1 µM	5.86 ± 1	0.25 ± 0.35	6.15 ± 1.5	5.77 ± 1.3	7.03 ± 1.1	8.39	7.99	8.52	6.99
NNC(=O)c1ccc(NC(=O)Cn2c(=O)c3cc(I)ccc3n(Cc3ccccc3)c2=O)cc1 [Compound 15, 2-[1-Benzyl-6-iodo-2,4-dioxo-1,4-dihydroquinazolin-3(2H)-yl]-N-[4-(hydrazinecarbonyl)phenyl]acetamide]	0.8 ± 0.1 µM	9.5 ± 1	0.65 ± 0.15	8.95 ± 1	8.18 ± 1	8.8 ± 1	5.49	5.82	6.37	5.92
O=C(Cn1c(=O)c2cc(I)ccc2n(Cc2ccccc2)c1=O)Nc1ccc(-c2nnc(S)o2)cc1 [Compound 16, 2-[1-Benzyl-6-iodo-2,4-dioxo-1,4-dihydroquinazolin-3(2H)-yl]-N-[4-(5-mercapto-1,3,4-oxadiazol-2-yl)phenyl]acetamide]	0.4 µM and 0.43 µM	6.54 ± 1	0.33 ± 0.25	6.67 ± 1	6.2 ± 1	7.36 ± 1	6.69	6.56	7.06	5.95
Cc1nnc(-c2ccc(NC(=O)Cn3c(=O)c4cc(I)ccc4n(Cc4ccccc4)c3=O)cc2)o1 [Compound 17, 2-[1-Benzyl-6-iodo-2,4-dioxo-1,4-dihydroquinazolin-3(2H)-yl]-N-[4-(5-methyl-1,3,4-oxadiazol-2-yl)phenyl]acetamide]	0.3 ± 0.5 µM	5.55 ± 0.7	0.15 ± 0.35	5.4 ± 1.5	5.11 ± 1.1	6.85 ± 0.9	8.31	–	–	6.73
Cc1cc(C)n(-c2ccc(NC(=O)Cn3c(=O)c4cc(I)ccc4n(Cc4ccccc4)c3=O)cc2)n1 [Compound 18, 2-[1-Benzyl-6-iodo-2,4-dioxo-1,4-dihydroquinazolin-3(2H)-yl]-N-[4-(3,5-dimethyl-1H-pyrazol-1-yl)phenyl]acetamide]	0.25 ± 0.5 µM	5.25 ± 0.7	0.17 ± 0.35	5.68 ± 1.5	5.24 ± 1.1	6.46 ± 0.9	8.67	–	–	7.04
